Data published in patent US10953028B2, “Method of treating heterotopic ossification” (THE REGENTS OF THE UNIVERSITY OF MICHIGAN, priority 2015, dated 2021).
“And” between values parts separate entries of the source, which are not always exact repeats. Identical values can stand only once.

Assays:
[1] = system: caACVR1fl/fl mice injected with cardiotoxin and Ad.cre; details: mouse, in vivo
burn/tenotomy mice = test: Burn/tenotomy trauma-induced HO model (microCT, histology, immunostaining); format: in vivo, mouse; details: 9 weeks

CO[C@H]1C[C@@H]2CC[C@@H](C)[C@@](O)(O2)C(=O)C(=O)N2CCCC[C@H]2C(=O)O[C@H]([C@H](C)C[C@@H]2CC[C@@H](O)[C@H](OC)C2)CC(=O)[C@H](C)/C=C(\C)[C@@H](O)[C@@H](OC)C(=O)[C@H](C)C[C@H](C)/C=C/C=C/C=C/1C [rapamycin] was tested, and the “total HO normalized volume” value [1] was 0.0, the “total HO volume” value [1] was 0.00 mm^3 and 0.0 mm^3 and the “de novo (soft tissue) HO volume” value (burn/tenotomy mice; rapamycin 5 mg/kg i.p. every other day, control 1.60 mm^3) was 0.81 mm^3. For the same molecule, the “de novo (soft tissue) HO normalized volume” value (burn/tenotomy mice; rapamycin 5 mg/kg i.p., control = 1.0) was 0.51.
